# Measurements as given in patent US9586903B2, “Isoquinoline derivatives” (Hoffmann-La Roche Inc., priority 2013, dated 2017).
# System: human embryonic stem cell derived neural stem cells (NSCs)
# Experiment: Neural stem cell proliferation assay (neurogenesis assay, ATP/CellTiterGlo readout)
# Type: cell-based
# Conditions: 4 days incubation
# Protocol: Neural Stem Cell Proliferation Assay
# Neurogenic properties of small molecules are determined based on the proliferation of human embryonic stem cell derived neural stem cells (NSCs) which were derived via a dual smad inhibition as previously described (Chambers, S. M., et al., Highly efficient neural conversion of human ES and iPS cells by dual inhibition of SMAD signaling, Nature biotechnology, 2009. 27(3): p. 275-80.)
# Compounds respond is measured by the increase in cells based on ATP levels (Promega:CellTiterGlo®) after an incubation period of 4 days.
# NSCs are thawed and expanded over 3 passages. On the 14th day, NSCs are seeded in Polyornithin/Laminin coated 384 well plates at a cell density of 21′000 cells/cm^2 in a media volume of 38 μl.
# 4 hours after cell seeding, compound solutions are added at a volume of 2 μl. Stock solutions of the compounds (water, 5% DMSO) are diluted to obtain a dose response (11 points, dilution factor is 2), ranging from 8 μM to 8 nM. Controls are run to consistently determine the neurogenic properties of the cells:
# Negative (neutral) control is cell culture Media (final DMSO concentration: 0.25%).
# 1. cell culture Media+100 ng/ml FGF2 (final DMSO concentration: 0.1%)
# 2. cell culture Media+20 ng/ml EGF (final DMSO concentration: 0.1%)
# 3. cell culture Media+100 ng/ml Wnt3a (final DMSO concentration: 0.1%)
# After 4 days incubation at 37° C., 5% CO2, the amount of ATP per well is quantified. The ATP concentration is proportional to the cell number. ATP is quantified by using the Promega CellTiterGlo® kit. The CellTiterGlo® reagents contain a cell lysis buffer, a thermo stable luciferase (UltraGlo™ recombinant luciferase), magnesium and luciferin. Luciferin reacts with ATP producing oxyluciferin, AMP and light. The luminescence signal is proportional to the ATP content.
# The value of negative (neutral) control is determined for each assay plate by taking the average of 16 negative control wells. The neurogenic compound response is calculated for each compound as (compound/Negative Control)*100.
# The values of EC150 from the dose response curve are determined for each test compound. The EC150 is the compound concentration at which 150% activity of control (100%) is reached.
# [1] = Homo sapiens, Neural stem cell, 96 h, Table 1, novel compounds, concentration at which 150% activity of control (100%) is reached
smiles,measurement,setting,value
"CS(=O)(=O)NNC(=O)c1ccc2cncc(-c3ccc(Cl)cc3)c2c1 [Example 25, N′-(4-(4-Chlorophenyl)isoquinoline-6-carbonyl)methanesulfonohydrazide]",EC (150% of control),[1],0.02 µM
"CN(NC(=O)c1ccc2cncc(-c3ccc(Cl)cc3)c2c1)S(C)(=O)=O [Example 28, N′-(4-(4-Chlorophenyl)isoquinoline-6-carbonyl)-N-methylmethanesulfonohydrazide]",EC (150% of control),[1],0.39 µM
"O=C(c1ccc2cncc(-c3ccc(Cl)cc3)c2c1)N1CCOCC1 [Example 18, (4-(4-Chlorophenyl)isoquinolin-6-yl)(morpholino)methanone]",EC (150% of control),[1],0.38 µM
"NC(=O)c1ccc2cncc(-c3ccc(C(F)(F)F)cc3)c2c1 [Example 34, 4-(4-(Trifluoromethyl)phenyl)isoquinoline-6-carboxamide]",EC (150% of control),"Table 2, known compounds",0.02 µM
"O=C(NCCC(F)(F)F)c1ccc2cncc(-c3ccc(Cl)cc3)c2c1 [Example 24, 4-(4-Chlorophenyl)-N-(3,3,3-trifluoropropyl)isoquinoline-6-carboxamide]",EC (150% of control),[1],0.06 µM
"CC(C)(C)CNC(=O)c1ccc2cncc(-c3ccc(Cl)cc3)c2c1 [Example 4, 4-(4-Chloro-phenyl)-isoquinoline-6-carboxylic acid (2,2-dimethyl-propyl)-amide]",EC (150% of control),[1],0.19 µM
"NC(=O)c1ccc2cncc(C3=CCOCC3)c2c1 [Example 29, 4-(3,6-Dihydro-2H-pyran-4-yl)isoquinoline-6-carboxamide]",EC (150% of control),[1],0.14 µM
"O=C(c1ccc2cncc(-c3ccc(Cl)cc3)c2c1)N1CCS(=O)(=O)CC1 [Example 3, [4-(4-Chloro-phenyl)-isoquinolin-6-yl]-(1,1-dioxo-thiomorpholin-4-yl)-methanone]",EC (150% of control),[1],0.16 µM
"CC(C)(C)NC(=O)c1ccc2cncc(-c3ccc(Cl)cc3)c2c1 [Example 23, N-tert-Butyl-4-(4-chlorophenyl)isoquinoline-6-carboxamide]",EC (150% of control),[1],0.73 µM
"CS(=O)(=O)c1ccc(CNC(=O)c2ccc3cncc(-c4ccc(Cl)cc4)c3c2)cc1 [Example 9, 4-(4-chlorophenyl)-N-(4-(methylsulfonyl)benzyl)isoquinoline-6-carboxamide]",EC (150% of control),[1],0.85 µM
"CC(C)NC(=O)c1ccc2cncc(-c3ccc(Cl)cc3)c2c1 [Example 15, 4-(4-Chlorophenyl)-N-isopropylisoquinoline-6-carboxamide]",EC (150% of control),[1],0.98 µM
"CS(=O)(=O)c1cccc(CNC(=O)c2ccc3cncc(-c4ccc(Cl)cc4)c3c2)c1 [Example 12, 4-(4-Chlorophenyl)-N-(3-(methylsulfonyl)benzyl)isoquinoline-6-carboxamide]",EC (150% of control),[1],0.1 µM
"O=C(NCC(F)(F)F)c1ccc2cncc(-c3ccc(Cl)cc3)c2c1 [Example 14, 4-(4-Chlorophenyl)-N-(2,2,2-trifluoroethyl)isoquinoline-6-carboxamide]",EC (150% of control),[1],0.05 µM
"NC(=O)c1ccc2cncc(-c3ccc(Cl)nc3)c2c1 [Example 32, 4-(6-Chloropyridin-3-yl)isoquinoline-6-carboxamide]",EC (150% of control),[1],0.02 µM
"CC(NC(=O)c1ccc2cncc(-c3ccc(Cl)cc3)c2c1)c1cccc(S(C)(=O)=O)c1 (stereo not shown) [Example 27, 4-(4-Chlorophenyl)-N-(1-(3-(methylsulfonyl)phenyl)ethyl)isoquinoline-6-carboxamide]",EC (150% of control),[1],0.79 µM
"CC1(CNC(=O)c2ccc3cncc(-c4ccc(Cl)cc4)c3c2)CCC(=O)N1 (stereo not shown) [Example 20, 4-(4-Chlorophenyl)-N-((2-methyl-5-oxopyrrolidin-2-yl)methyl)isoquinoline-6-carboxamide]",EC (150% of control),[1],0.18 µM
"CC(C)(CO)NC(=O)c1ccc2cncc(-c3ccc(Cl)cc3)c2c1 [Example 17, 4-(4-Chlorophenyl)-N-(1-hydroxy-2-methylpropan-2-yl)isoquinoline-6-carboxamide]",EC (150% of control),[1],2.5 µM
"CS(=O)(=O)CCNC(=O)c1ccc2cncc(-c3ccc(Cl)cc3)c2c1 [Example 7, 4-(4-Chlorophenyl)-N-(2-(methylsulfonyl)ethyl)isoquinoline-6-carboxamide]",EC (150% of control),[1],0.07 µM
"O=C(NC1CC1)c1ccc2cncc(-c3ccc(Cl)cc3)c2c1 [Example 5, 4-(4-Chlorophenyl)-N-cyclopropylisoquinoline-6-carboxamide]",EC (150% of control),[1],0.03 µM
"CN(CC1CC1)C(=O)c1ccc2cncc(-c3ccc(Cl)cc3)c2c1 [Example 21, 4-(4-Chlorophenyl)-N-(cyclopropylmethyl)-N-methylisoquinoline-6-carboxamide]",EC (150% of control),[1],0.21 µM
"O=C(NC1CCOC1)c1ccc2cncc(-c3ccc(Cl)cc3)c2c1 (stereo not shown) [Example 16, 4-(4-Chlorophenyl)-N-(tetrahydrofuran-3-yl)isoquinoline-6-carboxamide]",EC (150% of control),[1],0.76 µM
"NC(=O)c1ccc2cncc(-c3ccc(Cl)cc3Cl)c2c1 [Example 31, 4-(2,4-Dichlorophenyl)isoquinoline-6-carboxamide]",EC (150% of control),[1],0.06 µM
"NC(=O)c1ccc2cncc(-c3ccc(Cl)cc3)c2c1 [Example 33, 4-(4-Chlorophenyl)isoquinoline-6-carboxamide]",EC (150% of control),"Table 2, known compounds",0.01 µM
"COc1ccccc1CNC(=O)c1ccc2cncc(-c3ccc(Cl)cc3)c2c1 [Example 10, 4-(4-Chlorophenyl)-N-(2-methoxybenzyl)isoquinoline-6-carboxamide]",EC (150% of control),[1],0.09 µM
"O=C(NCC1CC1)c1ccc2cncc(-c3ccc(Cl)cc3)c2c1 [Example 6, 4-(4-Chlorophenyl)-N-(cyclopropylmethyl)isoquinoline-6-carboxamide]",EC (150% of control),[1],0.19 µM
"N#Cc1ccc(-c2cncc3ccc(C(N)=O)cc23)cc1 [Example 30, 4-(4-Cyanophenyl)isoquinoline-6-carboxamide]",EC (150% of control),[1],0.03 µM
"O=C(Nc1ccccc1)c1ccc2cncc(-c3ccc(Cl)cc3)c2c1 [Example 13, 4-(4-Chlorophenyl)-N-phenylisoquinoline-6-carboxamide]",EC (150% of control),[1],0.71 µM
"Cn1cc(NC(=O)c2ccc3cncc(-c4ccc(Cl)cc4)c3c2)cn1 [Example 26, 4-(4-Chlorophenyl)-N-(1-methyl-1H-pyrazol-4-yl)isoquinoline-6-carboxamide]",EC (150% of control),[1],0.32 µM
"O=C(NCc1ccccn1)c1ccc2cncc(-c3ccc(Cl)cc3)c2c1 [Example 11, 4-(4-Chlorophenyl)-N-(pyridin-2-ylmethyl)isoquinoline-6-carboxamide]",EC (150% of control),[1],0.09 µM
"O=C(NCc1ccccc1)c1ccc2cncc(-c3ccncc3)c2c1 [Example 1, N-Benzyl-4-(pyridin-4-yl)isoquinoline-6-carboxamide]",EC (150% of control),[1],0.07 µM
"O=C(NCc1cccnc1)c1ccc2cncc(-c3ccc(Cl)cc3)c2c1 [Example 8, 4-(4-Chlorophenyl)-N-(pyridin-3-ylmethyl)isoquinoline-6-carboxamide]",EC (150% of control),[1],0.08 µM
"O=C(c1ccc2cncc(-c3ccc(Cl)cc3)c2c1)N1CCC(O)C1 (stereo not shown) [Example 22, (4-(4-Chlorophenyl)isoquinolin-6-yl)(3-hydroxypyrrolidin-1-yl)methanone]",EC (150% of control),[1],0.28 µM
"CN1CCN(C(=O)c2ccc3cncc(-c4ccc(Cl)cc4)c3c2)CC1 [Example 19, (4-(4-Chlorophenyl)isoquinolin-6-yl)(4-methylpiperazin-1-yl)methanone]",EC (150% of control),[1],0.11 µM
"O=C(NCc1ccccc1)c1ccc2cncc(-c3ccc(Cl)cc3)c2c1 [Example 2, N-benzyl-4-(4-chlorophenyl)isoquinoline-6-carboxamide]",EC (150% of control),[1],0.09 µM
